Measurements: patent US12325700B2, “Crystal form S4 of the PLK4 inhibitor (1R,2S)-(e)-2-(3-(4-((cis-2,6-dimethylmorpholino)methyl)styryl)-1 h-imidazol-6-yl)-5′-methoxyspiro[cyclopropane-1,3′-indolin]-2′-one fumarate” (UNIVERSITY HEALTH NETWORK, priority 2019, dated 2025)
≈ marks a conversion by molar mass, not a printed value. Structures can show the parent of a compound that is named as a salt. Where two headings read alike, the source gives them in different places.

Tests used:
[1] = Intrinsic dissolution rate at pH 2; format: physicochemical
[2] = Equilibrium solubility in bio-relevant media at ambient temperature; format: physicochemical; conditions: for solubility thermodynamic: thermodynamic from solid
Protocol: Also, equilibrium solubilities were measured in various bio-relevant media at ambient temperature.

[3] = Dynamic vapor sorption (DVS) hygroscopicity measurement; format: physicochemical; conditions: 25° C.
Protocol: Hygroscopicity measurements were performed by transferring about 10 mg of sample into a DVS instrument and subsequently recording the weight change with respect to the atmospheric humidity at 25° C. using the following parameters: […]

[4] = In-vitro dissolution testing of tablets (oral dosage forms); format: physicochemical
Excerpt: According to the FDA's guidance, in vitro dissolution testing of a drug substance in its oral dosage forms can be properly designed to establish an In Vivo-In Vitro Correlation (IVIVC), i.e., the correlation between an in-vitro property of a dosage form and an in-vivo response. With this guidance, two batches of fumarate containing crystal forms D and S4 were used to prepare tablets, to evaluate any impact on performance of the drug product. Each of the two batches of fumarate and excipients were individually sieved before weighing. The desired weight of each component was then transferred into a shaker mixer and blended. Tableting for the two batches was then performed using a single punch tablet press.
The performance of these tablets was then evaluated using a properly validated dissolution test method.

[5] = human, in vivo
Protocol: Patients were dosed in clinical trials approved by Health Canada and the Research Ethics Board of the Hospital administering the drug. Eight patients were administered the form S4 tablets, six at a dose level of 48 mg and two at a dose level of 160 mg. 64 patients were administered the form D tablets at doses ranging from 3-160 mg.
Blood was collected for analysis prior to dosing and 2, 4, and 6 h after dosing. Briefly, using standard phlebotomy procedures, approximately 6 mL of blood was collected into a K3EDTA blood collection tube and then inverted 8-10 times to mix. The sample was then centrifuged at 1,000 g for 10-15 min at approximately 5° C. The plasma fraction of the blood was removed using a disposable pipette, transferred to a new tube, frozen at −70° C. and subsequently shipped on dry ice for analysis.
Levels of compound (I) were measured in plasma using a method validated in accordance to all applicable USFDA, OECD and MHLW regulations and the USFDA Guidance for Industry: Bioanalytical Method Validation May 2001. […] After evaporation of the extraction solvent, the sample extracts were reconstituted and analyzed by reversed-phase HPLC using a Waters Atlantis dC18. […] The ionized compounds were detected using MS/MS. […] Pharmacokinetic parameters were determined using the Excel add in “PK Functions” […]

Row | Intrinsic dissolution rate [1] | solubility thermodynamic ([2]; fasted state simulating gastric fluid (FaSSGF), fassgf or other biorelevant, fasted state simulating gastric fluid (FaSSGF), read-out: equilibrium solubility in FaSSGF) | solubility thermodynamic ([2]; fasted state simulating intestinal fluid (FaSSIF), fassif, fasted state simulating intestinal fluid (FaSSIF), read-out: equilibrium solubility in FaSSIF) | weight gain at 80% RH [3] | Dissolution Max ([4]; time 15) | Dissolution Mean ([4]; time 15) | Dissolution Min ([4]; time 15) | Dissolution Max ([4]; time 30) | Dissolution Mean ([4]; time 30) | Dissolution Min ([4]; time 30) | Dissolution Max ([4]; time 60 (60 min)) | Dissolution Mean ([4]; time 60 (60 min)) | Dissolution Min ([4]; time 60 (60 min)) | equilibrium solubility in FaSSGF ([2]; fasted state simulating gastric fluid (FaSSGF)) | equilibrium solubility in FaSSIF ([2]; fasted state simulating intestinal fluid (FaSSIF)) | average dose-normalized exposure (AUC0-6 h divided by dose) [5] | Structure (SMILES)
1 | 440.4 μg/cm^2-min | 2080 µg/mL (≈ 3890 µM) | 80 µg/mL (≈ 150 µM) | 0.56% | 64% | 63% | 61% | 86% | 83% | 81% | 98% | 94% | 92% | – | – | – | COc1ccc2c(c1)[C@]1(C[C@H]1c1ccc3c(/C=C/c4ccc(CN5C[C@@H](C)O[C@@H](C)C5)cc4)n[nH]c3c1)C(=O)N2 [form D]
2 | 429.3 μg/cm^2-min | – | – | 0.41% | 77% | 76% | 74% | 91% | 90% | 89% | 95% | 94% | 93% | 2520 µg/mL | 50 µg/mL | 5.99 ± 2.48 ng·h/mL/mg | COc1ccc2c(c1)[C@]1(C[C@H]1c1ccc3c(/C=C/c4ccc(CN5C[C@@H](C)O[C@@H](C)C5)cc4)n[nH]c3c1)C(=O)N2 [form S4, (1R,2S)-(e)-2-(3-(4-((cis-2,6-dimethylmorpholino)methyl)styryl)-1 h-imidazol-6-yl)-5′-methoxyspiro[cyclopropane-1,3′-indolin]-2′-one fumarate]
